# pIC50: −log10 of the molar value.
# Assay: Inhibition of perforin (unknown origin)-mediated 51Cr-labelled human Jurkat cell lysis preincubated with protein for 30 mins followed by cell addition measured after 4 hrs by gamma counting method
row,Compound,pIC50
1,COC(=O)c1ccccc1S(=O)(=O)Nc1cncc(-c2ccc(-c3ccc4c(c3)CN(C)C4=O)s2)c1,5.54
2,CN1Cc2cc(-c3ccc(-c4cncc(NS(=O)(=O)c5cccc(Cl)c5F)c4)s3)ccc2C1=O,4.89
3,CN1Cc2cc(-c3ccc(-c4cncc(NS(=O)(=O)c5ccc(-c6cnco6)cc5)c4)s3)ccc2C1=O,5.52
4,CN1Cc2cc(-c3ccc(-c4cncc(NS(=O)(=O)c5ccccc5OC(F)(F)F)c4)s3)ccc2C1=O,4.75
5,CN1Cc2cc(-c3ccc(-c4ccc(OC(F)(F)F)c(NS(=O)(=O)c5ccccn5)c4)s3)ccc2C1=O,< 4.70
6,CN1Cc2cc(-c3ccc(-c4cncc(NC(=O)c5ccc(F)cc5F)c4)s3)ccc2C1=O,< 4.70
7,CN1Cc2cc(-c3ccc(-c4cncc(NS(=O)(=O)c5ccc(Cl)cc5)c4)s3)ccc2C1=O,5.27
8,CN1Cc2cc(-c3ccc(-c4cccc(S(=O)(=O)Nc5ccccn5)c4)s3)ccc2C1=O,5.05
9,CN1Cc2cc(-c3ccc(-c4cncc(NS(=O)(=O)c5cccc(Cl)c5)c4)s3)ccc2C1=O,5.62
10,CN1Cc2cc(-c3ccc(-c4cncc(NS(=O)(=O)c5cccc(C(F)(F)F)c5)c4)s3)ccc2C1=O,5.91
11,CN1Cc2cc(-c3ccc(-c4cncc(NS(=O)(=O)c5cccc(C#N)c5)c4)s3)ccc2C1=O,< 4.70
12,CCOC(=O)c1ccc(S(=O)(=O)Nc2cncc(-c3ccc(-c4ccc5c(c4)CN(C)C5=O)s3)c2)cc1,4.71
13,CN1Cc2cc(-c3ccc(-c4cncc(NS(=O)(=O)c5ccccc5[N+](=O)[O-])c4)s3)ccc2C1=O,5.18
14,Cc1ccc(S(=O)(=O)Nc2cncc(-c3ccc(-c4ccc5c(c4)CN(C)C5=O)s3)c2)cc1Cl,5.09
15,CN1Cc2cc(-c3ccc(-c4cncc(NS(=O)(=O)c5cccnc5)c4)s3)ccc2C1=O,4.82
16,CN1Cc2cc(-c3ccc(-c4cncc(NS(=O)(=O)c5ccc6c(c5)OCCO6)c4)s3)ccc2C1=O,< 4.70
17,CN1Cc2cc(-c3ccc(-c4cncc(NS(=O)(=O)c5ccccc5F)c4)s3)ccc2C1=O,5.69
18,CN1Cc2cc(-c3ccc(-c4cc(NS(=O)(=O)c5ccccn5)ccc4F)s3)ccc2C1=O,< 4.70
19,CN1Cc2cc(-c3ccc(-c4cnc(Cl)c(NS(=O)(=O)c5ccc(F)cc5F)c4)s3)ccc2C1=O,5.99
20,CN1Cc2cc(-c3ccc(-c4ccc(NS(=O)(=O)c5ccc(F)cc5F)nc4)s3)ccc2C1=O,< 4.70
21,CN1Cc2cc(-c3ccc(-c4cncc(NS(=O)(=O)c5ccc(F)c(F)c5)c4)s3)ccc2C1=O,4.73
22,CN1Cc2cc(-c3ccc(-c4cncc(NS(=O)(=O)c5ccccc5Br)c4)s3)ccc2C1=O,5.58
23,CN1Cc2cc(-c3ccc(-c4cncc(NS(=O)(=O)c5ccc(I)cc5)c4)s3)ccc2C1=O,5.30
24,COc1ccc(S(=O)(=O)Nc2cncc(-c3ccc(-c4ccc5c(c4)CN(C)C5=O)s3)c2)cc1,5.20

row,Compound,pIC50
1,COC(=O)c1cccc(S(=O)(=O)Nc2cncc(-c3ccc(-c4ccc5c(c4)CN(C)C5=O)s3)c2)c1,5.11
2,CN1Cc2cc(-c3ccc(-c4cnc(F)c(NS(=O)(=O)c5ccccn5)c4)s3)ccc2C1=O,5.39
3,COc1ccc(-c2ccc(-c3ccc4c(c3)CN(C)C4=O)s2)cc1S(=O)(=O)Nc1ccccn1,5.01
4,Cc1ccc(S(=O)(=O)Nc2ccccn2)cc1-c1ccc(-c2ccc3c(c2)CN(C)C3=O)s1,< 4.70
5,Cc1ccc(NS(=O)(=O)c2ccccn2)cc1-c1ccc(-c2ccc3c(c2)CN(C)C3=O)s1,4.81
6,COc1ncc(-c2ccc(-c3ccc4c(c3)CN(C)C4=O)s2)cc1NS(=O)(=O)c1ccc(F)cc1F,5.45
7,CN1Cc2cc(-c3ccc(-c4cnc(F)c(NS(=O)(=O)c5ccc(F)cc5F)c4)s3)ccc2C1=O,5.70
8,CN1Cc2cc(-c3ccc(-c4cncc(S(=O)(=O)Nc5ccc(F)cc5F)c4)s3)ccc2C1=O,5.65
9,CN1Cc2cc(-c3ccc(-c4ccnc(NS(=O)(=O)c5ccc(F)cc5F)c4)s3)ccc2C1=O,5.33
10,CN1Cc2cc(-c3ccc(-c4cncc(NS(=O)(=O)c5ccc(F)cc5)c4)s3)ccc2C1=O,5.02
11,CN1Cc2cc(-c3ccc(-c4cncc(NS(=O)(=O)c5cccc(F)c5)c4)s3)ccc2C1=O,4.70
12,CN1Cc2cc(-c3ccc(-c4cncc(NS(=O)(=O)c5c(F)cc(F)cc5F)c4)s3)ccc2C1=O,5.75
13,CN1Cc2cc(-c3ccc(-c4cncc(NS(=O)(=O)c5ccc(Cl)c(Cl)c5)c4)s3)ccc2C1=O,5.88
14,CN1Cc2cc(-c3ccc(-c4cncc(NS(=O)(=O)c5ccc(Cl)cc5Cl)c4)s3)ccc2C1=O,4.82
15,CN1Cc2cc(-c3ccc(-c4cncc(NS(=O)(=O)c5cccc(Br)c5)c4)s3)ccc2C1=O,5.68
16,CN1Cc2cc(-c3ccc(-c4cncc(NS(=O)(=O)c5ccc(Br)cc5Br)c4)s3)ccc2C1=O,5.54
17,COc1ccccc1S(=O)(=O)Nc1cncc(-c2ccc(-c3ccc4c(c3)CN(C)C4=O)s2)c1,4.83
18,COc1cccc(S(=O)(=O)Nc2cncc(-c3ccc(-c4ccc5c(c4)CN(C)C5=O)s3)c2)c1,5.59
19,CN1Cc2cc(-c3ccc(-c4cncc(NS(=O)(=O)c5cccc(OC(F)(F)F)c5)c4)s3)ccc2C1=O,5.85
20,CN1Cc2cc(-c3ccc(-c4cncc(NS(=O)(=O)c5ccc(OC(F)(F)F)cc5)c4)s3)ccc2C1=O,< 4.70
21,CN1Cc2cc(-c3ccc(-c4cncc(NS(=O)(=O)c5ccccc5C(F)(F)F)c4)s3)ccc2C1=O,5.84
22,CN1Cc2cc(-c3ccc(-c4cncc(NS(=O)(=O)c5ccc(C(F)(F)F)cc5)c4)s3)ccc2C1=O,< 4.70
23,CN1Cc2cc(-c3ccc(-c4cncc(NS(=O)(=O)c5cc(C(F)(F)F)cc(C(F)(F)F)c5)c4)s3)ccc2C1=O,< 4.70
24,CN1Cc2cc(-c3ccc(-c4cncc(NS(=O)(=O)c5ccccc5C#N)c4)s3)ccc2C1=O,5.04

row,Compound,pIC50
1,CN1Cc2cc(-c3ccc(-c4cncc(NS(=O)(=O)c5ccc(C#N)cc5)c4)s3)ccc2C1=O,5.29
2,COC(=O)c1ccc(S(=O)(=O)Nc2cncc(-c3ccc(-c4ccc5c(c4)CN(C)C5=O)s3)c2)cc1,5.09
3,CN1Cc2cc(-c3ccc(-c4cncc(NS(=O)(=O)c5ccc(C(=O)O)cc5)c4)s3)ccc2C1=O,6.12
4,CN1Cc2cc(-c3ccc(-c4cncc(NS(=O)(=O)c5ccccc5S(C)(=O)=O)c4)s3)ccc2C1=O,5.17
5,CN1Cc2cc(-c3ccc(-c4cncc(NS(=O)(=O)c5ccc(S(C)(=O)=O)cc5)c4)s3)ccc2C1=O,< 4.70
6,CN1Cc2cc(-c3ccc(-c4cncc(NS(=O)(=O)c5ccc([N+](=O)[O-])cc5)c4)s3)ccc2C1=O,5.56
7,Cc1cc(F)ccc1S(=O)(=O)Nc1cncc(-c2ccc(-c3ccc4c(c3)CN(C)C4=O)s2)c1,5.26
8,CN1Cc2cc(-c3ccc(-c4cncc(NS(=O)(=O)c5ccc(F)c(C(F)(F)F)c5)c4)s3)ccc2C1=O,5.43
9,CN1Cc2cc(-c3ccc(-c4cncc(NS(=O)(=O)c5cc(Br)cc(C(F)(F)F)c5)c4)s3)ccc2C1=O,< 4.70
10,CN1Cc2cc(-c3ccc(-c4cncc(NS(=O)(=O)c5ccccn5)c4)s3)ccc2C1=O,5.97
11,CN1Cc2cc(-c3ccc(-c4cncc(NS(=O)(=O)c5ccsc5)c4)s3)ccc2C1=O,4.90
12,CN1Cc2cc(-c3ccc(-c4cncc(NS(=O)(=O)c5ccc(-c6ccno6)s5)c4)s3)ccc2C1=O,5.15
13,Cc1cc(C)n(-c2ccc(S(=O)(=O)Nc3cncc(-c4ccc(-c5ccc6c(c5)CN(C)C6=O)s4)c3)cc2)n1,4.72
14,Cc1ncsc1S(=O)(=O)Nc1cncc(-c2ccc(-c3ccc4c(c3)CN(C)C4=O)s2)c1,4.94
15,CN1Cc2cc(-c3ccc(-c4cncc(NS(=O)(=O)c5ccccc5)c4)s3)ccc2C1=O,5.07
16,Cc1ccc(NS(=O)(=O)c2ccc(F)cc2F)cc1-c1ccc(-c2ccc3c(c2)CN(C)C3=O)s1,< 4.70
17,CN1Cc2cc(-c3ccc(-c4cncc(NS(=O)(=O)c5ccccc5Cl)c4)s3)ccc2C1=O,5.40
18,CN1Cc2cc(-c3ccc(-c4cncc(NS(=O)(=O)c5ccc(Br)cc5)c4)s3)ccc2C1=O,5.06
19,CN1Cc2cc(-c3ccc(-c4cccc(NS(=O)(=O)c5ccc(F)cc5F)c4)s3)ccc2C1=O,5.24
20,CN1Cc2cc(-c3ccc(-c4cncc(NS(=O)(=O)c5cccs5)c4)s3)ccc2C1=O,5.97
21,CN1Cc2cc(-c3ccc(-c4cncc(N(C)S(=O)(=O)c5ccc(F)cc5F)c4)s3)ccc2C1=O,4.79
22,CN1Cc2cc(-c3ccc(-c4cncc(NS(=O)(=O)c5ccc(C(F)(F)F)cc5Cl)c4)s3)ccc2C1=O,< 4.70

# Reference: BindingDB's records for doi:10.1016/j.ejmech.2017.05.048 (University of Auckland, 2017)
